# Read-outs that look alike come from different tables or passages of the source.
# Experiments:
# [1] = tested on: MIA PaCa-2 cells; test: Anti-Cancer Assay (MIA PaCa-2); assay type: cell-based; details: Homo sapiens, 240 h, 10 days, read-out: IC50 (inhibition of cell viability), activity range
# Experimental: (§1) Z-138 cells were seeded at a density of 2000-3000 cells per well in culture media (IMDM+10% FBS). PANC-1 (ATCC, CRL-1469™) and MIA PaCa-2 (ATCC, CRL-1420™) cells were seeded at a density of 200-300 cells per well in culture media (DMEM+10% FBS). Cells were seeded in opaque, flat bottomed tissue culture grade 96-well plates and Z-138 cells (suspension) were seeded and treated on the same day with various concentrations of test compounds. PANC-1 and MIA PaCa-2 cells, being adherent, were kept for overnight settlement at standard cell culture conditions (37° C., 5% CO2). On the following day, cells were treated with various concentrations of test compounds. Cells were treated with test compounds for a period of 96 h, 7 days and 10 days, for Z-138 cells, PANC-1 cells and MIA PaCa-2 cells, respectively. Cell viability was assessed using CellTiterGlo™ (Promega, USA) as per manufacturer's instructions. Relative Light Units (RLU) were read in Synergy™ 2 reader (Biotek, USA). The assay measures cellular ATP as an indicator of cell viability. RLU is proportional to the number of viable cells in the respective well.
# (§2) % inhibition of cell viability was calculated relative to the vehicle control samples containing media with 0.1% DMSO alone as per the formula below. (Avg. of Untreated Control−Avg. of Test)×100 • Avg. of Untreated control
# (§3) The IC50 values of individual compounds were calculated with Non Linear Regression Analysis using Graph Pad Prism (Graph Pad software, Inc, USA).
# [2] = target: PRMT5:MEP50 (Homo sapiens, UniProt O14744); test: Biochemical assay, HTRF detection, inhibitory effect on PRMT5; details: biotinylated H4R3 substrate, 1 μM SAM; protocol 1 or 2 not given; read-out: IC50 (PRMT5 inhibition), activity range
# Experimental: (§4) Inhibitory effect of compounds on PRMT5 was assessed using HTRF detection technology in biochemical assay. Biotinylated H4R3 (residues 1-21) was used as a substrate. Compounds were pre-incubated with 15-25 ng PRMT5:MEP50 per well of a 384-well plate for 30 min at room temperature in the assay buffer containing 20 mM Bicine, pH 7.6, 25 mM NaCl, 2 mM DTT, 0.01% Chicken albumin and 0.01% Tween-20. Reaction was initiated by adding 1 μM of SAM and 50 nM biotinylated H4R3. Total assay volume was 15 μL. Reaction was continued for 120 min at room temperature. Then detection solution containing Streptavidin-Eu cryptate, anti-rabbit IgG-XL-665, Histone H4R3 Dimethyl Symmetric (H4R3me2s) Polyclonal Antibody, all prepared in HTRF detection buffer was added and further incubated for 30 min at room temperature. HTRF signal was recorded in PHERAStar microplate reader. Ratio of signal obtained at 665 nm and 620 nm was used to compute the percent inhibition of compound as follows % Inhibition=100−((Test Ratio−Negative control Ratio)/(Positive control Ratio−Negative control Ratio)*100) where Positive control=PRMT5+SAM+H4R3 Negative control=PRMT5+H4R3
# as §4, with “2.5” for “15-25”, “4 h” for “120 min”
# [3] = tested on: SDMA; test: SDMA inhibition assay; assay type: cell-based; details: Homo sapiens, Z-138 cells, 48 h
# Experimental: Z-138 cells (ATCC, CRL-3001™) were seeded at a density of 1 million cells/well in transparent, flat bottomed tissue culture grade 48-well plates. Cells were treated with various concentration of test compounds for a period of 48 h. Cell lysate was prepared using 1×CST Lysis buffer (Cell Signaling Technology, USA) and 500 ng/well/50 μL of lysate in pH 9.6 carbonate buffer was coated on 96-well Maxisorb plate and incubated overnight at 4° C. The plate was washed twice in 1×PBS containing 0.05% Tween 20 and blocked in 1% BSA for 1 h at ambient temperature. Further, the plate was incubated first with primary antibody (anti-SDMA antibody; CST #13222s) at ambient temperature for 2 h and then with HRP-conjugated secondary antibody at ambient temperature for 1 h with 2 intermittent washing steps in between.
# For luminescence based detection, HRP substrates (substrate A+ substrate B in a 1:1 proportion) were added followed by luminescence reading after 30 min in Synergy™ 2 reader (Biotek, USA).
# For absorbance based detection, TMB substrate was added followed by addition of STOP solution (2N H2SO4) post colour development and absorbance (excitation 450 nm and emission 540 nm) was measured in Synergy™ 2 reader (Biotek, USA).
# % inhibition of SDMA was calculated relative to the vehicle control samples containing media with 0.1% DMSO alone as per the formula below. (Avg. of Untreated Control−Avg. of Test)×100 • Avg. of Untreated control
# as §3
# [4] = tested on: Z-138 cells; test: Anticancer activity assay (cell viability, CellTiterGlo); assay type: cell-based; details: Homo sapiens, cell line not given, read-out: IC50 (inhibition of cell viability), activity range
# Experimental: as §1, §2, §3
# [5] = tested on: MIA PaCa-2 xenograft; test: Subchronic MIA PaCa-2 xenograft model, tumor growth inhibition; assay type: in vivo, Mus musculus; details: 2 mg/kg dose, female athymic nude mice
# Experimental: Tumor size was measured with Digimatic Vernier caliper (Mitutoyo, Japan) when the tumors became palpable. Tumor volume (T. V.) is calculated by using the formula: Tumor volume (mm3)=(L×W2)/2
# Where, L: Length of tumor, W: Width of tumor in millimeter Percent tumor growth inhibition (% TGI) is calculated using the formula: % TGI=[1−(Tf−Ti)/(Cf−Ci)]×100
# Where, Tf and Ti, are the final and initial tumor volumes (test compound), and Cf and Ci are the final and initial mean tumor volumes (vehicle group), respectively.
# Tumor fragment xenograft for pancreatic cancer cell line MIA PaCa-2 was established by implantation of tumor fragments 30-45 mm^3 subcutaneously into the right flank of female athymic nude FOXn1/J/Mus musculus mice with an age between 10-11 weeks purchased from the Jackson Laboratory, USA. All animal study proposals were reviewed and approved by the Institutional Animal Ethics Committee (IAEC) prior to initiation of experimentation.
# [6] = range given with mixed units (pM to nM)
# [7] = read-out: IC50 (SDMA inhibition), activity range
# Chain of PRMT5:MEP50 (O14744 whole entry, the tested form may be a part): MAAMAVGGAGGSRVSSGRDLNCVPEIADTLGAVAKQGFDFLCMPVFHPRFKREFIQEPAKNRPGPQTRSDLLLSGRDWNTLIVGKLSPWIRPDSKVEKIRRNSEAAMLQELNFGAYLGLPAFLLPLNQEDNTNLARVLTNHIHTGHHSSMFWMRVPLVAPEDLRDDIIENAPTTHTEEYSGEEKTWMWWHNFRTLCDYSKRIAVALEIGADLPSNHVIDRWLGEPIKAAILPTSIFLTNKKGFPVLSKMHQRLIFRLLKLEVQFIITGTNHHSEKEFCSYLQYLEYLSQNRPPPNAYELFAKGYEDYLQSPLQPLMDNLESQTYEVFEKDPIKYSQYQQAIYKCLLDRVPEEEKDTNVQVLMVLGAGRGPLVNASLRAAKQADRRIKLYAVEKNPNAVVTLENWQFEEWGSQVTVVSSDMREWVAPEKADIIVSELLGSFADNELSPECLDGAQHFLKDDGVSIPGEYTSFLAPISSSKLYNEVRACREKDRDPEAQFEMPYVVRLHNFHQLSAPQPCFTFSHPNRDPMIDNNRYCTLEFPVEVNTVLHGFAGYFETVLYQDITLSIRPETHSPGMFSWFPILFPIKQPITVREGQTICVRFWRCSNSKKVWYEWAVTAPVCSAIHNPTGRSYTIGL
# Chain of PRMT5:MEP50 (Q9BQA1 whole entry partner, the tested form may be a part): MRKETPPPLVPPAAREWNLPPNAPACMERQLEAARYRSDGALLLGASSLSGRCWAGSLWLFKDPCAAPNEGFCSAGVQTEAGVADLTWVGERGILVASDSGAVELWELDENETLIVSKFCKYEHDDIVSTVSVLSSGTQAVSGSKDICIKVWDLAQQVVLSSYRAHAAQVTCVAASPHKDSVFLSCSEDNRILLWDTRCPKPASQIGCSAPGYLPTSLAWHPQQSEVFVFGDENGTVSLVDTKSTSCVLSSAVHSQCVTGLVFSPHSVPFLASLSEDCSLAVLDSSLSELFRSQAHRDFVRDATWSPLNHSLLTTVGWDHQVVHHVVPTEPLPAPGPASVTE
"IC50 [1, 6] [pM]",IC50 [2] [nM],"IC50 [3, 7] [pM]",IC50 [4] [nM],IC50 [1] [pM],"IC50 [3, 6] [pM]",SMILES,% of tumor growth inhibition [5] [%]
401 to 30000,0.4 to 0.75,1100 to 50000,–,–,–,"Cc1nc(N)c2ccn([C@@H]3C=C(COc4cc(F)c5cc(Cl)c(N)nc5c4)[C@@H](O)[C@H]3O)c2n1 [Example 3, (1S,2R,5R)-5-(4-Amino-2-methyl-7H-pyrrolo[2,3-d]pyrimidin-7-yl)-3-(((2-amino-3-chloro-5-fluoroquinolin-7-yl)oxy)methyl)cyclopent-3-ene-1,2-diol]",–
401 to 30000,0.4 to 0.75,1100 to 50000,–,–,–,"Cc1nc(N)nc2c1ccn2[C@@H]1C=C(COc2cc(F)c3cc(Cl)c(N)nc3c2)[C@@H](O)[C@H]1O [Example 2, (1S,2R,5R)-3-(((2-Amino-3-chloro-5-fluoroquinolin-7-yl)oxy)methyl)-5-(2-amino-4-methyl-7H-pyrrolo[2,3-d]pyrimidin-7-yl)cyclopent-3-ene-1,2-diol]",–
–,> 0.75,–,> 1,–,–,"Cc1nc(N)c2ccn([C@@H]3C=C(CCc4cc(C(F)F)cc5c4CNCC5)[C@@H](O)[C@H]3O)c2n1 [Example 6, (1S,2R,5R)-5-(4-Amino-2-methyl-7H-pyrrolo[2,3-d]pyrimidin-7-yl)-3-(2-(6-(difluoromethyl)-1,2,3,4-tetrahydroisoquinolin-8-yl)ethyl)cyclopent-3-ene-1,2-diol]",–
–,0.4 to 0.75,1100 to 50000,> 1,–,–,"Cc1nc(N)nc2c1ccn2[C@@H]1C=C(CCc2cc(C(F)F)c(F)c3c2CNCC3)[C@@H](O)[C@H]1O [Example 8, (1S,2R,5R)-5-(2-Amino-4-methyl-7H-pyrrolo[2,3-d]pyrimidin-7-yl)-3-(2-(6-(difluoromethyl)-5-fluoro-1,2,3,4-tetrahydroisoquinolin-8-yl)ethyl)cyclopent-3-ene-1,2-diol]",–
–,0.4 to 0.75,–,–,1 to 400,100 to 1000,"Cc1nc(N)c2ccn([C@@H]3C=C(CCc4cc(F)c5cc(Cl)c(N)nc5c4)[C@@H](O)[C@H]3O)c2n1 [Example 7, (1S,2R,5R)-5-(4-Amino-2-methyl-7H-pyrrolo[2,3-d]pyrimidin-7-yl)-3-(2-(2-amino-3-chloro-5-fluoroquinolin-7-yl)ethyl)cyclopent-3-ene-1,2-diol]",–
–,0.4 to 0.75,–,–,1 to 400,100 to 1000,"Cc1nc(N)nc2c1ccn2[C@@H]1C=C(CCc2cc(F)c3cc(Cl)c(N)nc3c2)[C@@H](O)[C@H]1O [Example 1, (1S,2R,5R)-3-(2-(2-Amino-3-chloro-5-fluoroquinolin-7-yl)ethyl)-5-(2-amino-4-methyl-7H-pyrrolo[2,3-d]pyrimidin-7-yl)cyclopent-3-ene-1,2-diol]",57
–,> 0.75,–,> 1,–,–,"Cc1nc(N)c2ccn([C@@H]3C=C(COc4cc(C(F)F)cc5c4CNCC5)[C@@H](O)[C@H]3O)c2n1 [Example 5, (1S,2R,5R)-5-(4-Amino-2-methyl-7H-pyrrolo[2,3-d]pyrimidin-7-yl)-3-(((6-(difluoromethyl)-1,2,3,4-tetrahydroisoquinolin-8-yl)oxy)methyl)cyclopent-3-ene-1,2-diol]",–
401 to 30000,0.4 to 0.75,–,–,–,100 to 1000,"Cc1nc(N)nc2c1cnn2[C@@H]1C=C(CCc2cc(F)c3cc(Cl)c(N)nc3c2)[C@@H](O)[C@H]1O [Example 4, (1S,2R,5R)-3-(2-(2-Amino-3-chloro-5-fluoroquinolin-7-yl)ethyl)-5-(6-amino-4-methyl-1H-pyrazolo[3,4-d]pyrimidin-1-yl)cyclopent-3-ene-1,2-diol]",–

# Source: patent US12673054B2, “Substituted nucleoside analogs as PRMT5 inhibitors” (Lupin Limited, priority 2019, dated 2026)
